Assay results from patent publication US20230085307A1, “PYRIDAZINONE COMPOUND AND HERBICIDE” (NISSAN CHEMICAL CORPORATION, priority 2019, published 2023).

Legend:
[1] = system: late watergrass; experiment: Test Example 1: herbicidal activity, application before weed generation under submerged conditions (Table 16, symbol A); type: in vivo, late watergrass (Echinochloa oryzicola); conditions: amount of applied herbicide 320 g/ha
Procedure, shortened: (§1)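 Submerged Wagner pots (alluvial soil, 4 cm water) sown with weed seeds and planted with 2.5-leaf rice seedlings; emulsifiable concentrate diluted in water applied to water surface on sowing day. Held in greenhouse at 25-30 °C; injury scored 0-5 by herbicidal rate after three weeks.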

[2] = system: Japanese bulrush; experiment: Test Example 1: herbicidal activity, application before weed generation under submerged conditions (Table 16, symbol B); type: in vivo, Japanese bulrush (Schoenoplectus juncoides); conditions: amount of applied herbicide 320 g/ha
Procedure, shortened: as §1

[3] = system: oval-leafed pondweed; experiment: Test Example 1: herbicidal activity, application before weed generation under submerged conditions (Table 16, symbol C); type: in vivo, oval-leafed pondweed (Monochoria vaginalis); conditions: amount of applied herbicide 320 g/ha
Procedure, shortened: as §1

[4] = system: barnyard grass; experiment: Test Example 3: herbicidal effect by foliage application, Wagner pot (Table 18, symbol H); type: in vivo, barnyard grass (Echinochloa crus-galli); conditions: 320 g/ha
Procedure, shortened: (§2)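 Plants were sown in alluvial soil held under 0.1–0.5 cm standing water and grown 14 days in a greenhouse at 25–30 °C. An emulsifiable formulation, water-diluted to the set dose, was then sprayed onto the foliage, and effects were scored three weeks later using previously defined criteria.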

[5] = system: Chinese sprangletop; experiment: Test Example 3: herbicidal effect by foliage application, Wagner pot (Table 18, symbol D); type: in vivo, chinese sprangletop (Leptochloa chinensis); conditions: 320 g/ha
Procedure, shortened: as §2

[6] = system: rice flat sedge; experiment: Test Example 3: herbicidal effect by foliage application, Wagner pot (Table 18, symbol E); type: in vivo, rice flat sedge (Cyperus iria); conditions: 320 g/ha
Procedure, shortened: as §2

[7] = system: southern crabgrass; experiment: Test Example 4: herbicidal effect by soil treatment (Table 19, symbol F); type: in vivo, southern crabgrass (Digitaria ciliaris); conditions: amount of applied herbicide 320 g/ha
Procedure, shortened: (§3)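 Three weeks of greenhouse growth at 25° C. to 30° C. followed a uniform surface spray of water-diluted emulsion at a predetermined herbicide amount. Seeds had been sown beforehand under about 1.5 cm of sterilized diluvial soil. Grading followed criteria set out in an earlier test.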

[8] = system: green foxtail; experiment: Test Example 4: herbicidal effect by soil treatment (Table 19, symbol G); type: in vivo, green foxtail (Setaria viridis); conditions: amount of applied herbicide 320 g/ha
Procedure, shortened: as §3

[9] = system: barnyard grass; experiment: Test Example 4: herbicidal effect by soil treatment (Table 19, symbol H); type: in vivo, barnyard grass (Echinochloa crus-galli); conditions: amount of applied herbicide 320 g/ha
Procedure, shortened: as §3

[10] = system: wild oat; experiment: Test Example 4: herbicidal effect by soil treatment (Table 19, symbol I); type: in vivo, wild oat (Avena fatua); conditions: amount of applied herbicide 320 g/ha
Procedure, shortened: as §3

[11] = system: blackgrass; experiment: Test Example 4: herbicidal effect by soil treatment (Table 19, symbol J); type: in vivo, blackgrass (Alopecurus myosuroides); conditions: amount of applied herbicide 320 g/ha
Procedure, shortened: as §3

[12] = system: Italian ryegrass; experiment: Test Example 4: herbicidal effect by soil treatment (Table 19, symbol K); type: in vivo, Italian ryegrass (Lolium multiflorum); conditions: amount of applied herbicide 320 g/ha
Procedure, shortened: as §3

[13] = system: windgrass; experiment: Test Example 4: herbicidal effect by soil treatment (Table 19, symbol L); type: in vivo, windgrass (Apera spica-venti); conditions: amount of applied herbicide 320 g/ha
Procedure, shortened: as §3

[14] = system: velvetleaf; experiment: Test Example 4: herbicidal effect by soil treatment (Table 19, symbol M); type: in vivo, velvetleaf (Abutilon theophrasti); conditions: amount of applied herbicide 320 g/ha
Procedure, shortened: as §3

[15] = system: redroot pigweed; experiment: Test Example 4: herbicidal effect by soil treatment (Table 19, symbol N); type: in vivo, redroot pigweed (Amaranthus retroflexus); conditions: amount of applied herbicide 320 g/ha
Procedure, shortened: as §3

[16] = system: lambsquarters; experiment: Test Example 4: herbicidal effect by soil treatment (Table 19, symbol O); type: in vivo, lambsquarters (Chenopodium album); conditions: amount of applied herbicide 320 g/ha
Procedure, shortened: as §3

[17] = system: chickweed; experiment: Test Example 4: herbicidal effect by soil treatment (Table 19, symbol P); type: in vivo, common chickweed (Stellaria media); conditions: amount of applied herbicide 320 g/ha
Procedure, shortened: as §3

[18] = system: persian speedwell; experiment: Test Example 4: herbicidal effect by soil treatment (Table 19, symbol R); type: in vivo, Persian speedwell (Veronica persica); conditions: amount of applied herbicide 320 g/ha
Procedure, shortened: as §3

[19] = system: southern crabgrass; experiment: Test Example 5: herbicidal effect by foliage application, plastic box (Table 20, symbol F); type: in vivo, southern crabgrass (Digitaria ciliaris); conditions: amount of applied herbicide 320 g/ha; foliage application after 14-day growth; evaluated three weeks after application
Procedure, shortened: (§4)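 Plants sown in sterilized diluvial soil and grown 14 days in a greenhouse at 25° C to 30° C, then sprayed on the foliage with the compound's emulsion diluted in water to a predetermined herbicide amount. Injury to weeds and crops scored three weeks after application on a visual rating scale.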

[20] = system: green foxtail; experiment: Test Example 5: herbicidal effect by foliage application, plastic box (Table 20, symbol G); type: in vivo, green foxtail (Setaria viridis); conditions: amount of applied herbicide 320 g/ha; foliage application after 14-day growth; evaluated three weeks after application
Procedure, shortened: as §4

[21] = system: barnyard grass; experiment: Test Example 5: herbicidal effect by foliage application, plastic box (Table 20, symbol H); type: in vivo, barnyard grass (Echinochloa crus-galli); conditions: amount of applied herbicide 320 g/ha; foliage application after 14-day growth; evaluated three weeks after application
Procedure, shortened: as §4

[22] = system: wild oat; experiment: Test Example 5: herbicidal effect by foliage application, plastic box (Table 20, symbol I); type: in vivo, wild oat (Avena fatua); conditions: amount of applied herbicide 320 g/ha; foliage application after 14-day growth; evaluated three weeks after application
Procedure, shortened: as §4

[23] = system: blackgrass; experiment: Test Example 5: herbicidal effect by foliage application, plastic box (Table 20, symbol J); type: in vivo, blackgrass (Alopecurus myosuroides); conditions: amount of applied herbicide 320 g/ha; foliage application after 14-day growth; evaluated three weeks after application
Procedure, shortened: as §4

[24] = system: Italian ryegrass; experiment: Test Example 5: herbicidal effect by foliage application, plastic box (Table 20, symbol K); type: in vivo, Italian ryegrass (Lolium multiflorum); conditions: amount of applied herbicide 320 g/ha; foliage application after 14-day growth; evaluated three weeks after application
Procedure, shortened: as §4

[25] = system: windgrass; experiment: Test Example 5: herbicidal effect by foliage application, plastic box (Table 20, symbol L); type: in vivo, windgrass (Apera spica-venti); conditions: amount of applied herbicide 320 g/ha; foliage application after 14-day growth; evaluated three weeks after application
Procedure, shortened: as §4

[26] = system: velvetleaf; experiment: Test Example 5: herbicidal effect by foliage application, plastic box (Table 20, symbol M); type: in vivo, velvetleaf (Abutilon theophrasti); conditions: amount of applied herbicide 320 g/ha; foliage application after 14-day growth; evaluated three weeks after application
Procedure, shortened: as §4

[27] = system: redroot pigweed; experiment: Test Example 5: herbicidal effect by foliage application, plastic box (Table 20, symbol N); type: in vivo, redroot pigweed (Amaranthus retroflexus); conditions: amount of applied herbicide 320 g/ha; foliage application after 14-day growth; evaluated three weeks after application
Procedure, shortened: as §4

[28] = system: lambsquarters; experiment: Test Example 5: herbicidal effect by foliage application, plastic box (Table 20, symbol O); type: in vivo, lambsquarters (Chenopodium album); conditions: amount of applied herbicide 320 g/ha; foliage application after 14-day growth; evaluated three weeks after application
Procedure, shortened: as §4

[29] = system: chickweed; experiment: Test Example 5: herbicidal effect by foliage application, plastic box (Table 20, symbol P); type: in vivo, common chickweed (Stellaria media); conditions: amount of applied herbicide 320 g/ha; foliage application after 14-day growth; evaluated three weeks after application
Procedure, shortened: as §4

[30] = system: false cleavers; experiment: Test Example 5: herbicidal effect by foliage application, plastic box (Table 20, symbol Q); type: in vivo, false cleavers (Galium spurium); conditions: amount of applied herbicide 320 g/ha; foliage application after 14-day growth; evaluated three weeks after application
Procedure, shortened: as §4

[31] = system: persian speedwell; experiment: Test Example 5: herbicidal effect by foliage application, plastic box (Table 20, symbol R); type: in vivo, Persian speedwell (Veronica persica); conditions: amount of applied herbicide 320 g/ha; foliage application after 14-day growth; evaluated three weeks after application
Procedure, shortened: as §4

Compound: CCCC(=O)Oc1c(C)nn(C)c(=O)c1-c1c(-c2ccc(C)cc2)sc2cc(F)c(F)cc12 [5-004]
- Herbicidal effect, A: late watergrass [1]: 2 (Herbicidal rate of 20% or more and less than 40%)
- Herbicidal effect, B: Japanese bulrush [2]: 3 (Herbicidal rate of 40% or more and less than 70%)
- Herbicidal effect, C: oval-leafed pondweed [3]: 0 (Herbicidal rate of 5% or less (almost no effect))
- herbicidal effect on barnyard grass (H) [4]: 3 (Herbicidal rate of 40% or more and less than 70%)
- herbicidal effect on Chinese sprangletop (D) [5]: 0 (Herbicidal rate of 5% or less (almost no effect))
- herbicidal effect on rice flat sedge (E) [6]: 0 (Herbicidal rate of 5% or less (almost no effect))
- F: southern crabgrass, herbicidal effect grade [7]: 0 (Herbicidal rate of 5% or less (almost no effect))
- G: green foxtail, herbicidal effect grade [8]: 0 (Herbicidal rate of 5% or less (almost no effect))
- H: barnyard grass, herbicidal effect grade [9]: 0 (Herbicidal rate of 5% or less (almost no effect))
- I: wild oat, herbicidal effect grade [10]: 0 (Herbicidal rate of 5% or less (almost no effect))
- J: blackgrass, herbicidal effect grade [11]: 0 (Herbicidal rate of 5% or less (almost no effect))
- K: Italian ryegrass, herbicidal effect grade [12]: 0 (Herbicidal rate of 5% or less (almost no effect))
- L: windgrass, herbicidal effect grade [13]: 0 (Herbicidal rate of 5% or less (almost no effect))
- M: velvetleaf, herbicidal effect grade [14]: 0 (Herbicidal rate of 5% or less (almost no effect))
- N: redroot pigweed, herbicidal effect grade [15]: 3 (Herbicidal rate of 40% or more and less than 70%)
- O: lambsquarters, herbicidal effect grade [16]: 4 (Herbicidal rate of 70% or more and less than 90%)
- P: chickweed, herbicidal effect grade [17]: 0 (Herbicidal rate of 5% or less (almost no effect))
- R: persian speedwell, herbicidal effect grade [18]: 0 (Herbicidal rate of 5% or less (almost no effect))
- Herbicidal effect by foliage application, F: southern crabgrass [19]: 0 (Herbicidal rate of 5% or less (almost no effect))
- Herbicidal effect by foliage application, G: green foxtail [20]: 3 (Herbicidal rate of 40% or more and less than 70%)
- Herbicidal effect by foliage application, H: barnyard grass [21]: 0 (Herbicidal rate of 5% or less (almost no effect))
- Herbicidal effect by foliage application, I: wild oat [22]: 0 (Herbicidal rate of 5% or less (almost no effect))
- Herbicidal effect by foliage application, J: blackgrass [23]: 0 (Herbicidal rate of 5% or less (almost no effect))
- Herbicidal effect by foliage application, K: Italian ryegrass [24]: 1 (Herbicidal rate of 5% or more and less than 20%)
- Herbicidal effect by foliage application, L: windgrass [25]: 1 (Herbicidal rate of 5% or more and less than 20%)
- Herbicidal effect by foliage application, M: velvetleaf [26]: 3 (Herbicidal rate of 40% or more and less than 70%)
- Herbicidal effect by foliage application, N: redroot pigweed [27]: 2 (Herbicidal rate of 20% or more and less than 40%)
- Herbicidal effect by foliage application, O: lambsquarters [28]: 4 (Herbicidal rate of 70% or more and less than 90%)
- Herbicidal effect by foliage application, P: chickweed [29]: 3 (Herbicidal rate of 40% or more and less than 70%)
- Herbicidal effect by foliage application, Q: false cleavers [30]: 0 (Herbicidal rate of 5% or less (almost no effect))
- Herbicidal effect by foliage application, R: persian speedwell [31]: 3 (Herbicidal rate of 40% or more and less than 70%)
